Legend:
[1] = target: T1, recombinant human secretory phospholipase A2 (Homo sapiens, UniProt P14555); test: Inhibition test of human secretory phospholipase A2 (chromogenic assay, 96 well microtiterplate); format: biochemical; details: sPLA2 50 ng/well, 40° C., 30 minutes, OD 405 nm, substrate 1,2-bis(heptanoylthio)-1,2-dideoxy-sn-glycero-3-phospholylcholine
T1 sequence (P14555 21-144): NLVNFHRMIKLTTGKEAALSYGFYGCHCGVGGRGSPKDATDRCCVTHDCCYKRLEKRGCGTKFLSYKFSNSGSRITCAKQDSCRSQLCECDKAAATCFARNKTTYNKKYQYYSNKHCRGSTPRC
Excerpt: Inhibition Test of Human Secretory Phospholipase A2 Analytical Experiment
In order to identify and evaluate an inhibitor of recombinant human secretory phospholipase A2, the following chromogenic assay is utilized. The assay herein has been applied for high volume screening wherein 96 well microtiterplate is used. A general explanation for such assay is described in “Analysis of Human Synovial Fluid Phospholipase A2 on Short Chain Phosphatidylcholine-Mixed Micelles: Development of a Spectrophotometric Assay Suitable for a Micortiterplate Reader” (Analytical Biochemistry, 204, pp 190-197, 1992 by Laure. J. Reynolds. Lori L. Hughes and Edward A. Dennis: the disclosure of which is incorporated herein for reference.
Bovine Serum Albumin (fatty acid free) (1 g/L) (Sigma A-7030)
pH 7.5 (adjusted with NaOH)
pH 4.5 (adjusted with acetic acid)
1 mg of sPLA2 is dissolved in 1 ml of an enzyme buffer. Thereafter, the solution is maintained at 4° C.
In the assay, 5 μl of the solution is diluted with 1995 μl of the reaction buffer to be used.
198 mg of 5,5′-dithiobis-2-[…] (manufactured by Wako Pure Chemicals) is dissolved in 100 ml of H2O
100 mg of racemic 1,2-bis(heptanoylthio)-1,2-dideoxy-sn-glycero-3-phospholylcholine is dissolved in 1 ml of chloroform.
624.9 mg of Triton-X 100 is dissolved in 100 ml of the reaction buffer.
Enzyme Reaction: for 1 plate of Microtiterplate
1) 0.106 ml of the substrate solution is put in a centrifugal tube, and nitrogen gas is jetted to remove the solvent. 0.54 ml of Triton-X 100 is added thereto, the mixture is stirred, thereafter it is sonified in a bath type sonification to dissolve. To the resulting product are added 17.8 ml of the reaction buffer and 0.46 ml of DTNB, and 0.18 ml each of the admixture is poured to wells of the 96 well microtiterplate.
2) 10 μl of a test compound (or solvent blank) are added in accordance with alignment of plates which has been previously set.
3) Incubation is effected at 40° C. for 15 minutes.
4) 20 μl of an enzyme solution (sPLA2) which has been previously diluted (50 ng/well) are added to start reaction (40° C., 30 minutes).
5) Changes in absorbancy for 30 minutes are measured by a plate reader, and inhibition activity was calculated (OD: 405 nm).
6) IC50 was determined by plotting log concentration with respect to inhibition values within 10% to 90% inhibiting range.

Row | SMILES | IC50 [1] [nM] | melting point
1 | CCOC(=O)CCCOc1ccn2c(Cc3ccccc3)c3c(c2c1)C(C(N)=O)=CCC3 [Compound I-4] | 175 | 
2 | NC(=O)C1=CCCc2c1c1cc(OCCCC(=O)O)ccn1c2Cc1ccccc1 [Compound I-5] | 49 | 
3 | COC(=O)COc1cccn2c(Cc3ccccc3)c3c(c12)C(C(N)=O)OCCC3 (stereo not drawn) [Compound I-6] | 7500 | 182 to 183 °C
4 | COC(=O)COc1cccn2c(Cc3ccc(-c4ccccc4)cc3)c3c(c12)C(C(N)=O)=CCC3 [Compound I-12] | 125 | 196 to 198 °C
5 | NC(=O)C1=CCCc2c1c1c(OCC(=O)O)cccn1c2Cc1ccc(-c2ccccc2)cc1 [Compound I-13] | 10 | 224 to 227 °C
6 | COC(=O)COc1cccn2c(Cc3ccccc3)c3c(c12)C(C(N)=O)OCC3 (stereo not drawn) [Compound I-14] | 725 | 218 to 220 °C

The next lines start with the values.

Row | IC50 [1] [nM] | melting point | SMILES
7 | 8 |  | NC(=O)C1=CCCc2c1c1c(OCC(=O)O)cccn1c2Cc1ccccc1 [Compound I-2]
8 | 21 |  | NC(=O)C1CCCc2c1c1c(OCC(=O)O)cccn1c2Cc1ccccc1 (stereo not drawn) [Compound I-3]
9 | 269 | 175 to 179 °C | NC(=O)C1OCCCc2c1c1c(OCC(=O)O)cccn1c2Cc1ccccc1 (stereo not drawn) [Compound I-7]
10 | 21100 |  | COC(=O)COc1cccn2c(Cc3ccccc3)c3c(c12)C(C(N)=O)=NCC3 [Compound I-8]
11 | 1590 | 196 to 198 °C | NC(=O)C1=NCCc2c1c1c(OCC(=O)O)cccn1c2Cc1ccccc1 [Compound I-9]
12 | 39900 |  | NC(=O)c1nncc2c(Cc3ccccc3)n3cccc(OCC(=O)O)c3c12 [Compound I-10]
13 | 31 |  | NC(=O)C1=NOCc2c1c1c(OCC(=O)O)cccn1c2Cc1ccccc1 [Compound I-11]
14 | 35 | 242 to 243 °C (dec.) | NC(=O)C1OCCc2c1c1c(OCC(=O)O)cccn1c2Cc1ccccc1 (stereo not drawn) [Compound I-15]

Reference: US6673781B1, “Tricyclic compounds having sPLA2-inhibitory activities” (Shionogi & Co., Ltd., priority 1999, dated 2004)
